Experimental data from ChEMBL document CHEMBL1150170, “An antiplasmodial lignan from Euterpe precatoria” (J Nat Prod, 2002).

System: Plasmodium falciparum
Test: Antiplasmodial activity against chloroquine-sensitive Plasmodium falciparum 3D7 by [3H]phenylalanine uptake
Format: functional, organism-based

IC50: 12 µM
Compound: COc1cc([C@@H]2Oc3c(OC)cc(/C=C/COC(=O)c4ccccc4)cc3[C@H]2COC(=O)c2ccccc2)ccc1O (racemic) [DEHYDRODICONIFERYL ALCOHOL DIBENZOATE]
